Consider 3 molecules from publication PMC8145938, “Triphenilphosphonium Analogs of Chloramphenicol as Dual-Acting Antimicrobial and Antiproliferating Agents” (Antibiotics, 2021).

Converted amounts (≈) assume the structure as drawn.

The subject of one assay is E. coli 70S ribosomes. The experiment in a line: competition-binding assay with BODIPY-ERY (fluorescence anisotropy). As to conditions: for Kd: displacement of BODIPY-ERY from E. coli 70S ribosomes, read-out: apparent dissociation constant (KDapp). An excerpt:
All new semi-synthetic CAM-Cn-TPP compounds were expected to bind and act on bacterial ribosomes by inhibiting protein synthesis, which is similar to CAM-C4-TPP and the PTC-targeting parent antibiotic CHL. To assess the affinity of CAM-C10-TPP and CAM-C14-TPP for the bacterial 70S ribosome (Figure 2A), a competition-binding assay exploiting BODIPY-labeled erythromycin (BODIPY-ERY) was used. […] It is likely that in the case of CAM-C14-TPP, the linker may be too long, preventing the optimal positioning of the TPP moiety in the NPET. Thus, CAM-C10-TPP and CAM-C14-TPP bind to the bacterial ribosome. However, their affinity strongly depends on the length of the linker connecting the two […]. Among the three CAM-Cn-TPPs, the C10-linker was optimal in terms of its ability to bind to the 70S ribosome.
The binding affinity of CAM-Cn-TPP to E. coli ribosomes was analyzed by a competition-binding assay using the fluorescently-labeled BODIPY-ERY, as described before. BODIPY-Ery (16 nM) was incubated with the ribosomes (50 nM) in the buffer containing 20 mM HEPES-KOH (pH 7.5), 50 mM NH4Cl, 10 mM Mg(CH3COO)2, 4 mM mercaptoethanol, and 0.05% Tween-20 for 30 min at 25 °C. Solutions of CHL, CAM-Cn-TPP, and CnTPP in different concentration ranges were added to the formed complex. The mixture was incubated for 2 h, until an equilibrium was reached, and the values of fluorescence anisotropy were measured by VICTOR X5 Multilabel Plate Reader (Perkin Elmer, Waltham, MA, USA). The dissociation constants were calculated based on the assumption of the equilibrium competitive binding of two ligands at a single binding site, as described in [70].

The subject of assay [1] is E. coli S30 extract cell-free transcription-translation system. The experiment in a line: inhibition of firefly luciferase synthesis in cell-free bacterial translation system. The format is biochemical. Conditions: 30 µM compound. The protocol: The next step was to test the new CAM-Cn-TPP compounds for their ability to inhibit the synthesis of the firefly luciferase reporter in vitro in a cell-free transcription-translation system based on an E. coli S30 extract.
The inhibition of firefly luciferase synthesis in cell-free translation systems by CAM-Cn-TPP was tested with an E. coli S30 Extract System for Linear Templates (Promega, Madison, […], USA). The reactions were programmed with 100 ng of mRNA and were carried out in 5 μL aliquots at 37 °C for 30 min. The activity of in vitro synthesized luciferase was assessed using 5 μL of the substrate from the Steady-Glo Luciferase Assay System (Promega).

The test system of the next assay is E. coli ∆tolC-CAT. The experiment in a line: MIC determination, broth microdilution. Conditions: Escherichia coli. The assay is classed as cell-based. The protocol: (§1) E. coli ∆tolC CHL-resistant strain harboring plasmid encoding for chloramphenicol acetyltransferase (cat) (pCA24N-LacZ) and the control E. coli ∆tolC strain was used to evaluate the inhibitory effect of the compounds. CHL-resistant strains of B. subtilis pHT01-cat and B. subtilis pHT01-cfr were prepared by means of a transformation of a B. subtilis 168 strain with plasmids harboring the cat and cfr genes (chloramphenicol-florfenicol resistance) gene. The cfr gene encodes for the methyltransferase, which catalyzes the methylation of […] in the 23S rRNA and causes resistance to a variety of ribosome-targeting antibiotics that bind in the A site of the bacterial ribosome.
(§2) A standard laboratory strain of E. coli JW5503, with the deletion of the tolC gene, referred to here as the ∆tolC strain, was used to obtain the ∆tolC pCA24N-LacZ strain by means of transformation with the plasmid pCA24N-LacZ-harboring chloramphenicol acetyltransferase (cat) gene.
(§3) The MICs for CAM-Cn-TPP and Cn-TPP were determined by Mueller-Hinton broth microdilution, as recommended by CLSI in the Methods for Dilution Antimicrobial Susceptibility Tests for Bacteria that Grow Aerobically, Approved Standard, 9th ed., CLSI document M07-A9, using in-house-prepared panels. The compounds were diluted in a 96-well microtiter plate to final concentrations ranging from 0.5 to 360 μM in a 250-µL aliquot of the bacterial suspension, followed by incubation at 37 °C or 30 °C for 18 h. […] The bacterial growth was observed visually alongside OD measurements. The experiments were carried out in triplicate.

Another assay relates to E. coli ∆tolC. In words: MIC determination, broth microdilution. As to conditions: Escherichia coli. The format is cell-based. How it is done:
as §1, §2, §3

In another assay the test system is B. subtilis pHT01-cat. The experiment in a line: MIC determination, broth microdilution. The assay is classed as cell-based. Conditions: Bacillus subtilis, PHT01CAT. The protocol:
as §1
(§4) A standard laboratory strain of B. subtilis 168 was used to obtain the CHL-resistant strains, B. subtilis pHT01-CAT and B. subtilis pHT01-cfr, by means of transformation with the corresponding plasmids. Competent cell preparation and transformation procedures were conducted, as reported in [74, 75]. The desired colonies were selected at 10 µg/mL of CHL for B. subtilis pHT01 and 5 µg/mL or 3.2 µg/mL of CHL for B. subtilis pHT01-cfr.
as §3

Another assay deals with B. subtilis pHT01-cfr. In words: MIC determination, broth microdilution. The assay is classed as cell-based. Conditions: Bacillus subtilis, PHT01CFR. The protocol: as §1, §4, §3
The subject of another assay is HEK293T. The experiment in a line: MTT assay growth inhibition. The assay is classed as cell-based. As to conditions: Homo sapiens, HEK-293T, 72 h, read-out: 50% growth inhibition concentration (GI50). How it is done: (§5) The cytotoxicity of the tested substances was tested using the MTT (3-(4,5-dimethylthiazol-2-yl)-2,5-diphenyltetrazolium bromide) assay, with some modifications, and 2500 cells per well for the MCF7, HEK293T, and A549 cell lines or 4000 cells per well for the VA-13 cell line were plated in 135 µL of DMEM-F12 media (Gibco, Waltham, MA, USA) in a 96-well plate and incubated in the 5% CO2 incubator for first 16 h, without treatment. Then, 15 µL of media-DMSO solutions of the tested substances was added to the cells (the final DMSO concentrations in the media were 1% or less) and treated cells for 72 h with 25 nM–50 µM (eight dilutions) of our substances (triplicate each), and serial DMSO dilutions and doxorubicin were used as controls. The MTT reagent (Paneco LLC, Moscow, Russia) was then added to cells to a final concentration of 0.5 g/L (10× stock solution in PBS was used) and incubated for 2.5 h at 37 °C in the incubator under an atmosphere of 5% CO2. The MTT solution was then discarded, and 140 µL of DMSO (PharmaMed LLC, Krasnodarsky Krai, Russia) was added. The plates were swayed on a shaker (60 rpm) to dissolve the formazan. The absorbance was measured using a microplate reader (VICTOR X5 Light Plate Reader, PerkinElmer, Waltham, MA, USA) at a wavelength of 565 nm (in order to measure formazan concentration). The results were used to construct a dose-response graph and to estimate the CC50 value.

For another assay, the system named is MCF7. In words: MTT assay growth inhibition. The assay is classed as cell-based. Conditions: Homo sapiens, 72 h, read-out: 50% growth inhibition concentration (GI50). The protocol: as §5

Take `O=C(CCCCCCCCCC[P+](c1ccccc1)(c1ccccc1)c1ccccc1)N[C@H](CO)[C@H](O)c1ccc([N+](=O)[O-])cc1` [CAM-C10-TPP, (N-{[(1R,2R)-1,3-dihydroxy-1-(4-nitrophenyl)propan-2-yl]amino}-11-oxoundecyl)(triphenyl)phosphonium bromide]: the Kd in the assay on E. coli 70S ribosomes turned out to be 0.4 ± 0.04 µM. In addition, the “greater affinity to the ribosome compared to CAM-C4-TPP” value with E. coli 70S ribosomes (ratio of KDapp) is on record as ~ 1.5 fold. In addition, the “greater affinity to the ribosome compared to the parent CHL” value with E. coli 70S ribosomes (ratio of KDapp) is on record as ~ 7 fold. Also, the “inhibition of bacterial translation (luciferase synthesis)” value (from here on “inhibition of bacterial translation”) in assay [1] is “inhibits bacterial translation”. Besides, the MIC in the assay with E. coli ∆tolC-CAT came out at 25 µM; in the assay on E. coli ∆tolC it was 3 µM; in the assay with B. subtilis pHT01-cat, 6 µM; with B. subtilis pHT01-cfr it was 6 µM. Further, the GI50 in the assay with HEK293T amounted to 0.62 ± 0.04 µM; in the assay on MCF7, 1 ± 0.1 µM.

For `O=C(CCCCCCCCCC[P+](c1ccccc1)(c1ccccc1)c1ccccc1)NCCCC(=O)N[C@H](CO)[C@H](O)c1ccc([N+](=O)[O-])cc1` [CAM-C14-TPP, N-[(1R,2R)-1,3-dihydroxy-1-(4-nitrophenyl)propan-2-yl]-4-(triphenyl)phosphoniumundecanamidobutamide bromide], the Kd in the assay with E. coli 70S ribosomes was determined as 36 ± 9 µM. Also, the “lower affinity to the 70S ribosome compared to CHL” value in the assay with E. coli 70S ribosomes (ratio of KDapp) is on record as ~ 13 fold. Further, the “lower affinity to the 70S ribosome compared to other CAM-Cn-TPPs” value in the assay with E. coli 70S ribosomes (ratio of KDapp) is reported as 60-90 fold. Also, the “inhibition of bacterial translation” value in assay [1] is on record as “inhibits bacterial translation”. For the same molecule, the MIC stood at 12.5 µM in the assay with E. coli ∆tolC-CAT, 12.5 µM against E. coli ∆tolC, 12.5 µM against B. subtilis pHT01-cat and 6 µM in the assay on B. subtilis pHT01-cfr. In addition, the GI50 was 3.6 ± 0.5 µM with HEK293T and 5.8 ± 0.8 µM in the assay with MCF7.

Take `O=C(N[C@H](CO)[C@H](O)c1ccc([N+](=O)[O-])cc1)C(Cl)Cl` [CHL, chloramphenicol]: the Kd in the assay with E. coli 70S ribosomes was 2.8 ± 0.4 µM. Also, the “inhibition of bacterial translation” value in assay [1] is “inhibits bacterial translation”. Further, the MIC with E. coli ∆tolC-CAT was over 360 µM; in the assay with E. coli ∆tolC, 2.8 µM (≈ 0.905 µg/mL); in the assay on B. subtilis pHT01-cat it was 180 µM (≈ 58.2 µg/mL); against B. subtilis pHT01-cfr, 90 µM (≈ 29.1 µg/mL). Further, the GI50 in the assay with HEK293T and in the assay with MCF7 was over 50 µM throughout.
